# From US20240059729A1, “MULTIFUNCTIONAL CYCLIC DINUCLEOTIDE AND USE THEREOF” (TYLIGAND BIOSCIENCE (SHANGHAI) LIMITED, priority 2020, published 2024)
# Structures can show the parent of a compound that is named as a salt.
# Tests used:
# [1] = Hepatocyte metabolic stability assay; format: in vitro ADME; settings: 5 species of hepatocytes (mouse, rat, dog, monkey, human); FIG. 4A
# Source text: The compounds of the invention were similarly tested for hepatocyte metabolic stability in 5 species (mouse, rat, dog, monkey, human) according to standard methods of in vitro metabolic stability studies conventional in the art, for example (Kems, Edward H. and Di Li (2008). Drug-like Properties: Concepts, Structure Design and Methods: From ADME to Toxicity Optimization, San Diego: Academic Press; Di, Li et al, Optimization of a High Throughput Microsomal Stability Screening Assay for Profiling Drug Discovery Candidates, J Biomol Screen. 2003, 8(4), 453).
# The hepatocytes used in the experiment: human hepatocytes (SHQY, Lot #HEP190006), dog hepatocytes (IVT, Lot #ZMB); monkey hepatocytes (Xenotech, Lot #2010022), rat hepatocytes (SHQY, Lot #HEP134045), and mouse hepatocytes (BioIVT, Cat. #M005052, Lot. #MEO).
# Cryopreserved hepatocyte tubes were removed from a liquid nitrogen tank and immediately placed ill in a shaking water bath at 37±1° C. for 2 minutes±15 seconds. […] The supernatant was aspirated without touching the cell pellet, and cell viability and number were determined. The hepatocytes were counted and then the cell suspension was diluted in KHB buffer to the appropriate density (viable cell density=2×10^6 cells/mL). […]
# CT26 cells = experiment: Immunological memory function in CT26 transplantation tumor model, syngeneic or nude mouse (re-inoculation); format: in vivo, BALB/c immune-competent or nude mice; settings: for Average tumor volume after re-inoculation of CT26 cells: immunocompetent BALB/c mice
# Description: BALB/c immune-competent or nude mice of 6-8 weeks (purchased from Shanghai Ling Chang Biotech Co., Ltd.) were inoculated with 5×10^5 CT26 cells (supplied by Taicang Zexin Biotechnology Co., Ltd., ATCC #CRL-2638) subcutaneously on the right back dorsal, respectively, and the inoculation volume was 0.1 mL. When tumors grew to an average volume of 100 mm^3, they were randomized according to tumor size and mouse body weight and dosed. The day of the first dose was Day 0. Two doses were administered on Day 0 and Day 4, with 50 μg of compound/mouse (i.e., 2.5 mg/kg) injected intratumorally, with the same volume of PBS (Hyclone, Cat #SH30258.01) as a control. Mice in the nude or BALB/c mice groups were sacrificed on Day 9 or Day 13 post-dosing, respectively. On Day 21 post-dosing, mice were inoculated again subcutaneously on the left back dorsal with 5×10^5 CT26 cells in a volume of 0.1 mL. Blank BALB/c or nude mice without any treatment were also inoculated as controls. During the experiment, tumor volumes and the body weights were measured 3 times per week, and the tumor volume was calculated as V=D×d×d/2 (Ibid).
smiles,measurement,setting,value
"Nc1nc2c(ncn2[C@@H]2O[C@@H]3CO[P@@](=O)(S)OC4C(F)[C@H](n5cnc6c(N)nc(Cl)nc65)O[C@@H]4CO[P@@](=O)(S)OC2C3O)c(=O)[nH]1 (stereo partly drawn) [Example 10, (2′,3′)-cyclo-(Rp,Rp)-[2′-O-phosphorothioate-diester-guanosine]-[3′-O-phosphorothioate-diester-2-chloro-2′-deoxy-2′-fluoro-beta-adenosine] diammonium salt]",Hepatocyte metabolic stability (in words),[1],good metabolic stability
same,CT26 tumor growth inhibition in immunocompetent and immunodeficient mice (in words),"CT26 cells; 50 μg/mouse intratumorally, Day 0 and Day 4",significantly inhibited CT26 tumor growth in both immunocompetent and immunodeficient mice
same,Tumor status in treated immunocompetent mice,CT26 cells; Day 5 post-dosing,the tumors completely disappeared
same,Average tumor volume after re-inoculation of CT26 cells,"CT26 cells; re-inoculated Day 21, end of experiment Day 33",101 mm^3
same,Average tumor volume after re-inoculation of CT26 cells,"CT26 cells; re-inoculated Day 21, measured Day 30",29 mm^3
same,Immunological memory in immunocompetent mice,CT26 cells; re-inoculated CT26 cells,developed an immunological memory
same,Immunological memory in immunodeficient nude mice,CT26 cells; re-inoculated CT26 cells Day 21,no immunological memory has been generated
